Tested on: MDCK cell line
Experiment: MTT analysis of kidney-protection effect against cisplatin-induced renal toxicity
Assay type: cell-based, canine
Details: treated with cisplatin only (5 μM), MTT 24 hours after cisplatin; relative to negative control (neither cisplatin nor EPS) set at 100%
Experimental: MTT analysis was conducted to confirm the kidney-protection effect of the EPS prepared in Preparation Example 4 against renal toxicity caused by an anti-cancer agent.
First, MDCK cell line (Korean Cell Line Bank, Korea) was cultured in DMEM medium supplemented with 10% fetal bovine serum, 100 μg/mL streptomycin and 100 U/mL penicillin at 37° C. and 5% CO2. 100 μL each of the cultured cells was dispensed to 96-well plate at 2×10^4 cells/mL, and cultured for 24 hours. The EPS was added thereto to a concentration of 25, 50 or 250 μg/mL, and 2 hours thereafter, 5 μM of cisplatin was added thereto.
24 hours after cisplatin was added, 10 μL of MTT (1 mg/mL) dissolved in PBS was added to each well, subjected to reaction for 4 hours. After 4 hours, the formation of formazan was confirmed, and the supernatant was completely removed so that formazan may not be dispersed. Then, the resultant was added to dissolve, in 100 μL of DMSO and dissolved, followed by the measurement of the absorbance at 570 nm using ELISA reader.
The results are shown in FIG. 1 as relative values when the value of the negative control group treated with neither cisplatin nor EPS was set at 100%.

## N.N.[Cl][Pt][Cl] [cisplatin, cis-diammine-dichloroplatinum [II]]
  survival rate of MDCK cell line: about 60%

From patent US9717769B2, “Method for protecting kidney function” (FUGENBIOPHARMA CO., LTD., priority 2015, dated 2017)
